Legend:
[1] = system: GALAP (catchweed bedstraw); experiment: Pre-emergence herbicidal activity, cool season; type: in vivo, Galium aparine; conditions: lowest tested rate with 80% or greater inhibition; rates 300, 100, 30, 10 g/ha; about 14 days
Outline: (§1)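 Seeds sown in sterilised fertilised topsoil received surface-applied compound in 50:50 acetone/water, typically at 300, 100, 30 and 10 g/ha, then greenhouse-grown at 30/21° C (warm-season species) or 18/13° C (cool-season species). Percent inhibition versus untreated plants was scored at about 14 days, giving GR80; an asterisk marks activity short of 80% at the top rate.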

[2] = system: POLCO (wild buckwheat); experiment: Pre-emergence herbicidal activity, cool season; type: in vivo, Polygonum convolvulus; conditions: lowest tested rate with 80% or greater inhibition; rates 300, 100, 30, 10 g/ha; about 14 days
Outline: (§2)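 Read-out: GR80, derived from percent growth inhibition relative to untreated plants at roughly 14 days after planting and treatment. Compounds went onto the surface of freshly seeded soil at 10–300 g/ha. Day/night regimes were 30/21 °C for millet and crabgrass, 18/13 °C for blackgrass and buckwheat.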

[3] = system: SINAR (wild mustard); experiment: Pre-emergence herbicidal activity, cool season; type: in vivo, Sinapis arvensis; conditions: lowest tested rate with 80% or greater inhibition; rates 300, 100, 30, 10 g/ha; about 14 days
Outline: as §1

[4] = system: VERPE (creeping speedwell); experiment: Pre-emergence herbicidal activity, cool season; type: in vivo, Veronica persicaria; conditions: lowest tested rate with 80% or greater inhibition; rates 300, 100, 30, 10 g/ha; about 14 days
Outline: as §1

[5] = system: SASKR (russian thistle); experiment: Pre-emergence herbicidal activity, cool season; type: in vivo, Salsola kali; conditions: lowest tested rate with 80% or greater inhibition; rates 300, 100, 30, 10 g/ha; about 14 days
Outline: as §1

[6] = system: STEME (common chickweed); experiment: Pre-emergence herbicidal activity, cool season; type: in vivo, Stellaria media; conditions: lowest tested rate with 80% or greater inhibition; rates 300, 100, 30, 10 g/ha; about 14 days
Outline: as §1

[7] = system: LAMPU (purple deadnettle); experiment: Pre-emergence herbicidal activity, cool season; type: in vivo, Lamium purpureum; conditions: lowest tested rate with 80% or greater inhibition; rates 300, 100, 30, 10 g/ha; about 14 days
Outline: as §1

[8] = system: BROTE (downy brome); experiment: Pre-emergence herbicidal activity, cool season; type: in vivo, Bromus tectorum; conditions: GR80 = lowest tested rate (300, 100, 30, 10 g/ha) with 80% or greater inhibition; approx. 14 days after treating; 18/13° C.
Description: (§3) Tables 5 to 8 summarize results of tests conducted as described below to determine the pre-emergence herbicidal activity, in the form of a GR80 value, of illustrative compounds of this invention. […] Compounds of the invention were typically applied at rates of 300, 100, 30, and 10 g/ha. Where herbicidal activity was evident but 80% inhibition was not achieved at the highest rate tested, an asterisk (*) is shown in the following tables.
(§4) The pre-emergence tests were conducted by the following procedure. Topsoil was sieved to pass through a 1.27 cm screen. Fertilizer was added to the topsoil and the mixture was then sterilized by heating. The topsoil mixture was placed in a pot and compacted to a depth of 1.0 to 1.25 cm from the top of the pot. Seeds of each of several monocotyledonous and dicotyledonous annual plant species were placed on top of the soil. Additional soil was subsequently placed over the seeds to level-fill the pot. A known amount of each test compound dissolved or suspended in an appropriate organic solvent was diluted with a 50:50 mix of acetone and water and applied to the surface of the soil. After treatment the plants were placed in a greenhouse where they received 0.64 cm of overhead irrigation. All subsequent watering consisted of a light overhead mist and/or subirrigation as needed for germination and growth. Tables 5 and 6 below relate to warm season plant species which were placed after pre-emergence treatment in a greenhouse with a 30/21° C. day/night temperature regime. Tables 7 and 8 below relates to cool season plant species placed after pre-emergence treatment in a greenhouse or growth chamber with an 18/13° C. day/night temperature regime.
(§5) Approximately 14 days after planting and treating, the plants were observed and herbicidal efficacy recorded as percent inhibition by comparison with untreated plants.
(§6) The plant species usually regarded as weeds which were utilized in the tests are identified in the tables below according to the following legend, in which “d” indicates a dicotyledonous species and “m” a monocotyledonous species. All monocotyledonous species included in the tests herein are grasses.

[9] = system: AGSST (creeping bentgrass); experiment: Pre-emergence herbicidal activity, cool season; type: in vivo, Agrostis stolonifera; conditions: GR80 = lowest tested rate (300, 100, 30, 10 g/ha) with 80% or greater inhibition; approx. 14 days after treating; 18/13° C.
Outline: as §1

[10] = system: SETVI (green foxtail); experiment: Pre-emergence herbicidal activity, cool season; type: in vivo, Setaria viridis; conditions: GR80 = lowest tested rate (300, 100, 30, 10 g/ha) with 80% or greater inhibition; approx. 14 days after treating; 18/13° C.
Outline: as §1

[11] = system: POROL (common purslane); experiment: Pre-emergence herbicidal activity, warm season; type: in vivo, Portulaca oleracea; conditions: GR80 = lowest tested rate (300, 100, 30, 10 g/ha) with 80% or greater inhibition; approx. 14 days after treating; 30/21° C.
Outline: as §1

[12] = system: CIRAR (canada thistle (seedling)); experiment: Pre-emergence herbicidal activity, warm season; type: in vivo, Cirsium arvense; conditions: GR80 = lowest tested rate (300, 100, 30, 10 g/ha) with 80% or greater inhibition; approx. 14 days after treating; 30/21° C.
Description: as §3, §4, §5, §6

[13] = system: PANMI (wild proso millet); experiment: Pre-emergence herbicidal activity, warm season; type: in vivo, Panicum miliaceum; conditions: GR80 = lowest tested rate (300, 100, 30, 10 g/ha) with 80% or greater inhibition; approx. 14 days after treating; 30/21° C.
Outline: as §2

[14] = system: SETFA (giant foxtail); experiment: Pre-emergence herbicidal activity, warm season; type: in vivo, Setaria faberi; conditions: GR80 = lowest tested rate (300, 100, 30, 10 g/ha) with 80% or greater inhibition; approx. 14 days after treating; 30/21° C.
Outline: (§7)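 Activity is expressed as the rate giving 80% inhibition, with 300, 100, 30 and 10 g/ha typically tested. An asterisk marks activity short of 80% at the top rate. Warm-season grasses were held at 30/21 °C; cool-season blackgrass and wild buckwheat at 18/13 °C; scoring at about 14 days.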

[15] = system: PANDI (fall panicum); experiment: Pre-emergence herbicidal activity, warm season; type: in vivo, Panicum dichotomiflorum; conditions: GR80 = lowest tested rate (300, 100, 30, 10 g/ha) with 80% or greater inhibition; approx. 14 days after treating; 30/21° C.
Description: as §3, §4, §5, §6

[16] = system: BRAPP (broadleaf signalgrass); experiment: Pre-emergence herbicidal activity, warm season; type: in vivo, Brachiaria platyphylla; conditions: GR80 = lowest tested rate (300, 100, 30, 10 g/ha) with 80% or greater inhibition; approx. 14 days after treating; 30/21° C.
Outline: as §7

[17] = system: ALOMY (blackgrass); experiment: Pre-emergence herbicidal activity, cool season; type: in vivo, Alopecurus myosuroides; conditions: GR80 = lowest tested rate (300, 100, 30, 10 g/ha) with 80% or greater inhibition; approx. 14 days after treating; 18/13° C.
Outline: as §2

[18] = system: LOLMG (annual ryegrass); experiment: Pre-emergence herbicidal activity, cool season; type: in vivo, Lolium multiflorum; conditions: GR80 = lowest tested rate (300, 100, 30, 10 g/ha) with 80% or greater inhibition; approx. 14 days after treating; 18/13° C.
Description: as §3, §4, §5, §6

[19] = system: CHEAL (common lambsquarters); experiment: Pre-emergence herbicidal activity, warm season; type: in vivo, Chenopodium album; conditions: GR80 = lowest tested rate (300, 100, 30, 10 g/ha) with 80% or greater inhibition; approx. 14 days after treating; 30/21° C.
Outline: as §1

[20] = system: ECHCG (barnyardgrass); experiment: Pre-emergence herbicidal activity, warm season; type: in vivo, Echinochloa crus-galli; conditions: GR80 = lowest tested rate (300, 100, 30, 10 g/ha) with 80% or greater inhibition; approx. 14 days after treating; 30/21° C.
Outline: as §7

[21] = system: SORHA (johnsongrass (seedling)); experiment: Pre-emergence herbicidal activity, warm season; type: in vivo, Sorghum halepense; conditions: GR80 = lowest tested rate (300, 100, 30, 10 g/ha) with 80% or greater inhibition; approx. 14 days after treating; 30/21° C.
Outline: as §7

[22] = system: SORVU (shattercane); experiment: Pre-emergence herbicidal activity, warm season; type: in vivo, Sorghum vulgare; conditions: GR80 = lowest tested rate (300, 100, 30, 10 g/ha) with 80% or greater inhibition; approx. 14 days after treating; 30/21° C.
Description: as §3, §4, §5, §6

[23] = system: DIGSA (large crabgrass); experiment: Pre-emergence herbicidal activity, warm season; type: in vivo, Digitaria sanguinalis; conditions: GR80 = lowest tested rate (300, 100, 30, 10 g/ha) with 80% or greater inhibition; approx. 14 days after treating; 30/21° C.
Outline: as §2

| SMILES | Pre-emergence activity GR80, GALAP [1] | Pre-emergence activity GR80, POLCO [2] | Pre-emergence activity GR80, SINAR [3] | Pre-emergence activity GR80, VERPE [4] | Pre-emergence activity GR80, SASKR [5] | Pre-emergence activity GR80, STEME [6] | Pre-emergence activity GR80, LAMPU [7] | Pre-emergence activity (GR80) BROTE [8] | Pre-emergence activity (GR80) AGSST [9] | Pre-emergence activity (GR80) SETVI [10] | Pre-emergence activity (GR80) POROL [11] | Pre-emergence activity (GR80) PANMI [13] | Pre-emergence activity (GR80) SETFA [14] | Pre-emergence activity (GR80) BRAPP [16] | Pre-emergence activity (GR80) ALOMY [17] | Pre-emergence activity (GR80) LOLMG [18] | other results |
| --- | --- | --- | --- | --- | --- | --- | --- | --- | --- | --- | --- | --- | --- | --- | --- | --- | --- |
| CON(C)C(=O)n1cnc(S(=O)(=O)C(F)(F)C(F)(F)Br)n1 [Example 81] | [empty] | [empty] | 30 g/ha | 100 g/ha | 100 g/ha | 30 g/ha | 100 g/ha | 30 g/ha | 100 g/ha |  |  |  |  |  |  |  |  |
| CON(C)C(=O)n1cnc(S(=O)(=O)C(F)F)n1 [Example 34] | [empty] | 300 g/ha | 300 g/ha | 300 g/ha | 300 g/ha | [empty] | 300 g/ha | 300 g/ha |  | 300 g/ha |  |  |  |  |  |  |  |
| CN(C(=O)n1cnc(S(=O)(=O)C(F)(F)Br)n1)C1CCCCC1 [Example 43] | 300 g/ha | [empty] | [empty] | 300 g/ha | [empty] | 300 g/ha | 300 g/ha |  | 100 g/ha | 300 g/ha | 300 g/ha | 100 g/ha | 100 g/ha | 300 g/ha | 300 g/ha |  | Pre-emergence activity (GR80) CIRAR [12]: 300 g/ha; Pre-emergence activity (GR80) PANDI [15]: 100 g/ha |
| CON(C)C(=O)n1cnc(S(=O)(=O)C(F)(F)C(F)F)n1 [Example 69] | 100 g/ha | 100 g/ha | 30 g/ha | 100 g/ha | [empty] | 300 g/ha | [empty] | 300 g/ha |  | 100 g/ha |  |  |  |  | 300 g/ha | 300 g/ha |  |
| CCCN(CC)C(=O)n1cnc(S(=O)(=O)C(F)(F)C(F)(F)Br)n1 [Example 75] | 300 g/ha | [empty] | 30 g/ha | 10 g/ha | 10 g/ha | 30 g/ha | 30 g/ha | 300 g/ha | 30 g/ha | 30 g/ha | 300 g/ha | 100 g/ha | 300 g/ha | 300 g/ha |  | 300 g/ha | Pre-emergence activity (GR80) CHEAL [19]: 300 g/ha; Pre-emergence activity (GR80) ECHCG [20]: 100 g/ha; Pre-emergence activity (GR80) SORHA [21]: 300 g/ha; Pre-emergence activity (GR80) SORVU [22]: 300 g/ha; Pre-emergence activity (GR80) DIGSA [23]: 300 g/ha |

Reference: US6461997B1, “Triazole sulfones having herbicidal activity” (Monsanto Technology LLC, priority 1999, dated 2002)
